From ChEMBL document CHEMBL1201862, “PubChem BioAssay data set” (2004) come the findings set out here.

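Each compound was tested at five concentrations against cells in 96-well plates for 48 hours. At the GI50, growth is halved.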 The source made the active and inactive calls. Cut-off read from the data, not from the text of the source: active = GI50 up to about 1.1 µM and inactive = higher.

Some test systems named below: MOLT-4; A498; CCRF-CEM; SK-MEL-28; SF-539; KM12; 786-0; RXF 393; MDA-N; NCI-H23; SW-620; Hs-578T; COLO 205; UACC-62; OVCAR-8; U-251; SK-OV-3; HCT-15; SR.
What all share (assay): inhibition of tumour cell growth, NCI panel, 48 h

As for `COc1cccc(/C=N/[N+](C)(C)C)c1O`, the GI50 with MOLT-4, with A498, with CCRF-CEM, with SK-MEL-28, with SF-539 and with KM12 was > 10 µM (inactive) each time. Besides, the GI50 in the assay with 786-0 is > 10 µM (inactive); with RXF 393 it was > 10 µM (inactive); in the assay on MDA-N, > 10 µM (inactive); with NCI-H23 it was 2.22 µM (inactive); in the assay with SW-620, > 10 µM (inactive); in the assay with Hs-578T, > 10 µM (inactive). The GI50 in the assay on COLO 205 is > 10 µM (inactive); with UACC-62 it was > 10 µM (inactive); in the assay on OVCAR-8 it was > 10 µM (inactive); in the assay on U-251, > 10 µM (inactive); in the assay on SK-OV-3, > 10 µM (inactive); in the assay with HCT-15 it was more than 10 µM.

As for `Cc1cc(C)c2c(=N)c3ccccc3n(CCCCCCO)c2n1`, the GI50 in the assay with MOLT-4 was 3.78 µM (inactive); in the assay on A498, 10.5 µM (inactive); in the assay on CCRF-CEM, 1.22 µM (inactive); in the assay with SK-MEL-28, 5.71 µM (inactive); with SF-539 it was 2.33 µM (inactive); in the assay on KM12, 3.94 µM (inactive). Besides, the GI50 in the assay on 786-0 was 2.47 µM (inactive); with RXF 393, 3.21 µM (inactive); in the assay with MDA-N, 2.52 µM (inactive); in the assay with NCI-H23 it was 2.15 µM (inactive); with SW-620, 4.17 µM (inactive); in the assay with Hs-578T, 3.03 µM (inactive). Also, the GI50 in the assay with COLO 205 was 1.35 µM (inactive); in the assay with UACC-62 it was 2.64 µM (inactive); in the assay with OVCAR-8 it was 1.17 µM (inactive); in the assay on U-251 it was 3.51 µM (inactive); with SK-OV-3, 5.2 µM (inactive); in the assay with HCT-15, 2.88 µM.

With `COc1ccc(C(C)c2cc3c(cc2O)OCO3)cc1` (centres undefined), the GI50 is 9.02 µM (inactive) in the assay with MOLT-4; 14.8 µM (inactive) in the assay with A498; 16.8 µM (inactive) in the assay with SK-MEL-28; 16.9 µM (inactive) in the assay with SF-539; 12.9 µM (inactive) in the assay on KM12; 17.9 µM (inactive) in the assay with 786-0. Also, the GI50 was 14.8 µM (inactive) in the assay on RXF 393; 16.2 µM (inactive) in the assay with NCI-H23; 11.5 µM (inactive) in the assay on SW-620; 2.74 µM (inactive) with SR; 20.5 µM (inactive) with Hs-578T; 14.3 µM (inactive) with COLO 205. Besides, the GI50 is 12.1 µM (inactive) in the assay on UACC-62; 16.7 µM (inactive) in the assay with OVCAR-8; 15.1 µM (inactive) in the assay on U-251; 19.7 µM (inactive) with SK-OV-3; 7.33 µM with HCT-15.

Consider `COc1ccc2c(c1)c(CC(=O)O)c(C)n2C(=O)c1ccc(Cl)cc1`, for which the GI50 is > 100 µM (inactive) with MOLT-4; 33.8 µM (inactive) with CCRF-CEM; > 100 µM (inactive) in the assay with SK-MEL-28; 98.2 µM (inactive) in the assay on SF-539; 60.8 µM (inactive) in the assay on KM12; 75.3 µM (inactive) in the assay on 786-0. The GI50 was > 100 µM (inactive) in the assay with MDA-N; 57 µM (inactive) with NCI-H23; > 100 µM (inactive) in the assay with SW-620; 16.3 µM (inactive) with SR; > 100 µM (inactive) with Hs-578T; > 100 µM (inactive) in the assay with COLO 205. In addition, the GI50 is 77.6 µM (inactive) with OVCAR-8, 43.1 µM (inactive) with U-251 and more than 100 µM with HCT-15.

In the case of `O=C(/C=C/c1c[nH]c2ccccc12)c1ccccc1O`, the GI50 in the assay with MOLT-4 is 7.41 µM (inactive); in the assay on A498, 15.1 µM (inactive); in the assay on SK-MEL-28, 19.2 µM (inactive); in the assay with SF-539, 12.6 µM (inactive); in the assay on KM12, 11.3 µM (inactive); with 786-0, 12.5 µM (inactive). Further, the GI50 in the assay on MDA-N was 5.5 µM (inactive); in the assay on SW-620 it was 18.5 µM (inactive); in the assay on Hs-578T it was 22.6 µM (inactive); in the assay with UACC-62, 8.17 µM (inactive); in the assay with OVCAR-8, 12.9 µM (inactive); in the assay on U-251, 13.4 µM (inactive). In addition, the GI50 with SK-OV-3 is 15.1 µM (inactive); in the assay on HCT-15, 9.89 µM.

Consider `CCOC(=O)CNc1c(OCc2ccccc2)c(=O)c1=O`, for which the GI50 in the assay on MOLT-4, with CCRF-CEM, in the assay with SK-MEL-28, in the assay on KM12, in the assay with 786-0 and in the assay on RXF 393 was > 100 µM (inactive) in each case. The GI50 with MDA-N, in the assay with NCI-H23, in the assay with SW-620, in the assay with SR, with Hs-578T and with COLO 205 was > 100 µM (inactive) throughout. The GI50 is > 100 µM (inactive) with UACC-62; > 100 µM (inactive) with OVCAR-8; > 100 µM (inactive) in the assay on U-251; > 100 µM (inactive) with SK-OV-3; more than 100 µM in the assay with HCT-15.

Take `CC(=O)O[C@H]1/C(=C/c2ccncc2)C[C@H]2[C@@H]3CC=C4C[C@@H](N5CCCC5)CC[C@]4(C)[C@H]3CC[C@]12C`: the GI50 in the assay with MOLT-4 was 11.5 µM (inactive); in the assay with A498, 16.7 µM (inactive); with CCRF-CEM, 15.2 µM (inactive); with SK-MEL-28 it was 12.7 µM (inactive); in the assay on SF-539, 18.6 µM (inactive); with KM12, 11.9 µM (inactive). Also, the GI50 in the assay with 786-0 was 3.15 µM (inactive); with RXF 393, 6.9 µM (inactive); with NCI-H23, 15.1 µM (inactive); with SW-620, 12.2 µM (inactive); with SR, 5.2 µM (inactive); with Hs-578T it was 16.6 µM (inactive). Besides, the GI50 in the assay on COLO 205 is 11.4 µM (inactive); in the assay on UACC-62, 14.2 µM (inactive); in the assay on OVCAR-8, 14 µM (inactive); with U-251, 11.5 µM (inactive); in the assay on SK-OV-3, 17.9 µM (inactive); with HCT-15 it was 10.1 µM.

Turning to `CC12ON=C(c3ccccc3)N1C=CN1C(c3ccccc3)=NOC12` (centres undefined), the GI50 was > 100 µM (inactive) in the assay with SF-539; > 100 µM (inactive) in the assay with KM12; > 100 µM (inactive) in the assay with 786-0; 64.9 µM (inactive) with RXF 393; > 100 µM (inactive) in the assay with MDA-N; > 100 µM (inactive) with NCI-H23. Besides, the GI50 in the assay with Hs-578T is > 100 µM (inactive); in the assay with COLO 205, 37.2 µM (inactive); in the assay on UACC-62, > 100 µM (inactive); in the assay on OVCAR-8 it was > 100 µM (inactive); with SK-OV-3, > 100 µM (inactive); in the assay on HCT-15 it was more than 100 µM.

As for `Cc1ccc(O)c(C2=CC(c3cccc(Cl)c3)SC(=N)N2)c1` (centres undefined), the GI50 with MOLT-4 is 19.1 µM (inactive); in the assay on CCRF-CEM, 20.1 µM (inactive); with SF-539, 23 µM (inactive); in the assay on KM12, 24.9 µM (inactive); in the assay on 786-0 it was 30.8 µM (inactive); with RXF 393 it was 23.1 µM (inactive). The GI50 with MDA-N is 18.8 µM (inactive); in the assay on NCI-H23 it was 26.6 µM (inactive); in the assay on SW-620, 24.4 µM (inactive); in the assay on SR, 17.3 µM (inactive); in the assay with Hs-578T it was 19.9 µM (inactive); with COLO 205, 16.9 µM (inactive). The GI50 in the assay with UACC-62 was 13.7 µM (inactive); in the assay with OVCAR-8 it was 37.8 µM (inactive); in the assay on U-251, 18.3 µM (inactive); with SK-OV-3, 26.4 µM (inactive); with HCT-15, 18.9 µM.

`O=C(/C=C/c1ccccc1)c1cc(C(=O)/C=C/c2ccccc2)c(O)cc1O`: the GI50 in the assay with MOLT-4 is > 100 µM (inactive); in the assay on A498, 31.9 µM (inactive); in the assay on SK-MEL-28, 40.5 µM (inactive); in the assay with SF-539, 47.3 µM (inactive); with 786-0, > 100 µM (inactive); with MDA-N, > 100 µM (inactive). In addition, the GI50 in the assay with NCI-H23 is > 100 µM (inactive); in the assay with SW-620, > 100 µM (inactive); with Hs-578T it was 26.4 µM (inactive); in the assay with COLO 205, > 100 µM (inactive); in the assay on UACC-62, 49.8 µM (inactive); in the assay with OVCAR-8 it was > 100 µM (inactive). In addition, the GI50 with SK-OV-3 is > 100 µM (inactive); in the assay with HCT-15, more than 100 µM.

Consider `O=C(COc1ccc(Cl)c(Cl)c1)Nc1ccc[n+](Cc2ccc(S(=O)(=O)F)c(Cl)c2)c1`, for which the GI50 was 25.4 µM (inactive) in the assay on MOLT-4; > 100 µM (inactive) with A498; > 100 µM (inactive) in the assay with SK-MEL-28; > 100 µM (inactive) with SF-539; > 100 µM (inactive) in the assay on KM12; > 100 µM (inactive) with 786-0. In addition, the GI50 in the assay on RXF 393 is > 100 µM (inactive); in the assay with NCI-H23 it was > 100 µM (inactive); with SW-620 it was > 100 µM (inactive); with SR, 40.6 µM (inactive); in the assay with Hs-578T it was > 100 µM (inactive); in the assay with COLO 205 it was > 100 µM (inactive). Also, the GI50 in the assay on UACC-62 is > 100 µM (inactive); in the assay with OVCAR-8, > 100 µM (inactive); with U-251, > 100 µM (inactive); in the assay on SK-OV-3, > 100 µM (inactive); with HCT-15, more than 100 µM.

Take `CCCC(=O)n1[nH]c(=O)n(C(C)(C)C)c1=O`: the GI50 with MOLT-4, in the assay with CCRF-CEM, with SK-MEL-28, with KM12, in the assay with 786-0 and with RXF 393 was > 100 µM (inactive) in each case. Besides, the GI50 in the assay on MDA-N, in the assay on NCI-H23, in the assay on SW-620, in the assay on SR, with Hs-578T and with COLO 205 was > 100 µM (inactive) throughout. Further, the GI50 with UACC-62 was > 100 µM (inactive); in the assay with OVCAR-8 it was > 100 µM (inactive); with U-251, > 100 µM (inactive); with SK-OV-3 it was > 100 µM (inactive); in the assay with HCT-15, more than 100 µM.
